According to PubChem BioAssay (NCI):
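In this assay, cells in 96-well plates receive the compound at five concentrations for 48 hours. Endpoints are linearly interpolated between the surrounding concentrations. GI50 marks 50% less growth. TGI: concentration producing complete growth inhibition.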

What was measured:
Assay in all cases: NCI tumour cell line growth inhibition, 48 h
SN12C renal = tested on: SN12C renal
SK-MEL-28 melanoma = tested on: SK-MEL-28 melanoma
SK-MEL-5 melanoma = tested on: SK-MEL-5 melanoma
U251 CNS = tested on: U251 CNS
SNB-19 CNS = tested on: SNB-19 CNS
KM12 colon = tested on: KM12 colon
COLO 205 colon = tested on: COLO 205 colon
SF-295 CNS = tested on: SF-295 CNS
SW-620 colon = tested on: SW-620 colon
OVCAR-3 ovarian = tested on: OVCAR-3 ovarian

Compound: COc1ccc(/C=C/[N+](=O)[O-])cc1
- TGI (SN12C renal): 56 µM
- TGI (SK-MEL-28 melanoma): 28.3 µM
- TGI (SK-MEL-5 melanoma): 30.2 µM
- TGI (U251 CNS): 19.1 µM
- TGI (SNB-19 CNS): 12.7 µM
- TGI (KM12 colon): 12 µM
- TGI (COLO 205 colon): > 100 µM
- TGI (SF-295 CNS): 7.7 µM
- TGI (SW-620 colon): > 100 µM
- TGI (OVCAR-3 ovarian): 8.62 µM

Compound: CCCCCCCCCCCCCCCCOCCCOP(=O)(O)C1CCCN(O)C1=O (stereo not given)
- GI50 (SN12C renal): 1.53 µM
- TGI (SN12C renal): 12.8 µM
- GI50 (SK-MEL-28 melanoma): 3.46 µM
- TGI (SK-MEL-28 melanoma): 44.3 µM
- GI50 (SK-MEL-5 melanoma): 3.74 µM
- TGI (SK-MEL-5 melanoma): 14.7 µM
- GI50 (U251 CNS): 0.489 µM
- TGI (U251 CNS): 15.3 µM
- GI50 (SNB-19 CNS): 0.63 µM
- TGI (SNB-19 CNS): 14.5 µM
- GI50 (KM12 colon): 0.572 µM
- TGI (KM12 colon): 11.3 µM
- GI50 (COLO 205 colon): 0.548 µM
- TGI (COLO 205 colon): 13.3 µM
- GI50 (SF-295 CNS): 2.44 µM
- TGI (SF-295 CNS): 11.3 µM
- GI50 (SW-620 colon): 1.47 µM
- TGI (SW-620 colon): 22.3 µM
- GI50 (OVCAR-3 ovarian): 2.77 µM
- TGI (OVCAR-3 ovarian): 16.4 µM

Compound: Nc1nncs1
- TGI (SN12C renal): > 5000 µM
- TGI (SK-MEL-28 melanoma): > 5000 µM
- TGI (SK-MEL-5 melanoma): > 5000 µM
- TGI (U251 CNS): > 5000 µM
- TGI (SNB-19 CNS): > 5000 µM
- TGI (KM12 colon): > 5000 µM
- TGI (COLO 205 colon): > 3840 µM
- TGI (SF-295 CNS): > 5000 µM
- TGI (SW-620 colon): > 5000 µM
- TGI (OVCAR-3 ovarian): > 5000 µM

Compound: O=C(O)CNCc1c2ccccc2[n+]([O-])c2ccccc12
- TGI (SN12C renal): > 100 µM
- TGI (SK-MEL-28 melanoma): > 100 µM
- TGI (SK-MEL-5 melanoma): > 100 µM
- TGI (U251 CNS): > 100 µM
- TGI (SNB-19 CNS): > 100 µM
- TGI (KM12 colon): > 100 µM
- TGI (COLO 205 colon): > 100 µM
- TGI (SF-295 CNS): > 100 µM
- TGI (SW-620 colon): > 100 µM
- TGI (OVCAR-3 ovarian): > 100 µM

Compound: CSc1sc(=S)sc1SC
- TGI (SN12C renal): > 100 µM
- TGI (SK-MEL-28 melanoma): > 100 µM
- TGI (SK-MEL-5 melanoma): > 100 µM
- TGI (U251 CNS): > 100 µM
- TGI (SNB-19 CNS): > 100 µM
- TGI (KM12 colon): > 100 µM
- TGI (COLO 205 colon): > 100 µM
- TGI (SF-295 CNS): > 100 µM
- TGI (SW-620 colon): > 100 µM
- TGI (OVCAR-3 ovarian): > 100 µM

Compound: COC1/C=C\OC2(C)Oc3c(C)c(O)c4c(O)c(c(CN(C)C)c(O)c4c3C2=O)NC(=O)/C(C)=C\C=C/C(C)C(O)C(C)C(O)C(C)C(OC(C)=O)C1C (stereo not given)
- TGI (SN12C renal): 83.8 µM
- TGI (SK-MEL-28 melanoma): 97.5 µM
- TGI (SK-MEL-5 melanoma): 36.8 µM
- TGI (U251 CNS): 42.6 µM
- TGI (SNB-19 CNS): > 100 µM
- TGI (KM12 colon): 99.6 µM
- TGI (COLO 205 colon): 35.4 µM
- TGI (SF-295 CNS): > 100 µM
- TGI (SW-620 colon): 75.6 µM
- TGI (OVCAR-3 ovarian): > 100 µM

Compound: C[C@H](CCC1=NCCN1)[C@H]1CC[C@H]2[C@@H]3CC[C@@H]4C[C@H](O)CC[C@]4(C)[C@H]3CC[C@]12C
- TGI (SN12C renal): 37.3 µM
- TGI (SK-MEL-28 melanoma): 4.86 µM
- TGI (SK-MEL-5 melanoma): 3.45 µM
- TGI (U251 CNS): > 45.2 µM
- TGI (SNB-19 CNS): 36.3 µM
- TGI (KM12 colon): > 47.4 µM
- TGI (COLO 205 colon): 3.18 µM
- TGI (SF-295 CNS): 10.4 µM
- TGI (SW-620 colon): > 48.9 µM
- TGI (OVCAR-3 ovarian): 38.4 µM

Compound: COC(=O)c1nc2c3c(cccc3c1C(=O)OC)Nc1ccccc1-2
- TGI (SN12C renal): > 100 µM
- TGI (SK-MEL-28 melanoma): > 100 µM
- TGI (SK-MEL-5 melanoma): 56.5 µM
- TGI (U251 CNS): > 100 µM
- TGI (SNB-19 CNS): > 100 µM
- TGI (KM12 colon): > 100 µM
- TGI (COLO 205 colon): > 100 µM
- TGI (SF-295 CNS): > 100 µM
- TGI (SW-620 colon): > 100 µM
- TGI (OVCAR-3 ovarian): > 100 µM

Compound: NC(=O)c1cc(C2OC(CO)C(O)C2O)nn1-c1ccc([N+](=O)[O-])cc1 (stereo not given)
- TGI (SN12C renal): > 100 µM
- TGI (SK-MEL-28 melanoma): > 100 µM
- TGI (SK-MEL-5 melanoma): > 100 µM
- TGI (U251 CNS): > 100 µM
- TGI (SNB-19 CNS): > 100 µM
- TGI (KM12 colon): > 100 µM
- TGI (COLO 205 colon): > 100 µM
- TGI (SF-295 CNS): > 100 µM
- TGI (SW-620 colon): > 100 µM
- TGI (OVCAR-3 ovarian): > 100 µM

Compound: O=C(O)C(Br)Cc1ccc2c(c1)OCO2 (stereo not given)
- TGI (SN12C renal): > 100 µM
- TGI (SK-MEL-28 melanoma): > 100 µM
- TGI (SK-MEL-5 melanoma): > 100 µM
- TGI (U251 CNS): > 100 µM
- TGI (SNB-19 CNS): > 100 µM
- TGI (KM12 colon): > 100 µM
- TGI (COLO 205 colon): > 100 µM
- TGI (SF-295 CNS): > 100 µM
- TGI (SW-620 colon): > 100 µM
- TGI (OVCAR-3 ovarian): > 100 µM

Compound: C#C[C@@]1(O)[C@@H](CO)O[C@@H](n2cc(F)c3c(N)ncnc32)[C@@H]1O
- GI50 (SN12C renal): 0.302 µM
- TGI (SN12C renal): 4.74 µM
- GI50 (SK-MEL-28 melanoma): 4.26 µM
- TGI (SK-MEL-28 melanoma): > 100 µM
- GI50 (SK-MEL-5 melanoma): 0.267 µM
- TGI (SK-MEL-5 melanoma): 1.33 µM
- GI50 (U251 CNS): 0.631 µM
- TGI (U251 CNS): 11.6 µM
- GI50 (SNB-19 CNS): 0.524 µM
- TGI (SNB-19 CNS): 13.7 µM
- GI50 (KM12 colon): 0.502 µM
- TGI (KM12 colon): 24.9 µM
- GI50 (COLO 205 colon): 0.263 µM
- TGI (COLO 205 colon): 1.3 µM
- GI50 (SF-295 CNS): 0.653 µM
- TGI (SF-295 CNS): 2.33 µM
- GI50 (SW-620 colon): 0.159 µM
- TGI (SW-620 colon): 2.9 µM
- GI50 (OVCAR-3 ovarian): 1.11 µM
- TGI (OVCAR-3 ovarian): > 100 µM

Compound: COc1cc2c3c(c4cc(OC)c(OC)cc4c2cc1OC)[C@H](O)[C@@H]1CCCN1C3
- TGI (SN12C renal): 1.42 µM
- TGI (SK-MEL-28 melanoma): > 100 µM
- TGI (SK-MEL-5 melanoma): 1.11 µM
- TGI (U251 CNS): 2.5 µM
- TGI (SNB-19 CNS): > 100 µM
- TGI (KM12 colon): 1.52 µM
- TGI (COLO 205 colon): 0.154 µM
- TGI (SF-295 CNS): 1.64 µM
- TGI (SW-620 colon): > 100 µM
- TGI (OVCAR-3 ovarian): 1.18 µM
